Our source for the melting point, IC50 and inhibition values is US20020052503A1, “Substituted benzolactam compounds as substance p antagonists” (priority 1995, published 2002).

Where only a bound is given, the exact number is not on record here.

The melting point is the temperature, or range, at which the solid turns liquid. Usually inhibition stands for the change of the read-out against control, counted positive when it falls. A low value points to a response near the control.

System in one data set: not given
Assay: not given
Details: not given
In the case of `COc1cc2c(cc1CN[C@H]1C3CCN(CC3)[C@H]1C(c1ccccc1)c1ccccc1)N(C)C(=O)CC2`, the melting point was in the range of 136 to 139 °C. On the same count and under the same terms, with `COc1cc2ccc(=O)n(C)c2cc1CN[C@H]1C2CCN(CC2)[C@H]1C(c1ccccc1)c1ccccc1` the figure was 125 to 128 °C. On the same count and under the same terms, with `COc1cc2ccc(=O)n(C)c2cc1CN[C@H]1CCCN[C@H]1c1ccccc1.Cl.Cl` the figure was 260 to 263 °C; with `COc1cc2c(cc1CN[C@H]1CCCN[C@H]1c1ccccc1)N(C(C)C)C(=O)CC2.Cl.Cl`, 257 to 260 °C. For `CN1C(=O)CCc2cc(OC(F)F)c(CN[C@H]3CCCN[C@H]3c3ccccc3)cc21.Cl.Cl`, the melting point was 238 to 240 °C. On the same count and under the same terms, with `CN1C(=O)CCc2cc(OCC(F)(F)F)c(CN[C@H]3CCCN[C@H]3c3ccccc3)cc21.Cl.Cl` the figure was 239 to 240 °C. Still for that read-out and setting: with `COc1cc2c(cc1CN[C@H]1CCCN[C@H]1c1ccccc1)N(C)C(=S)CC2.Cl.Cl` the figure was 245 to 246 °C. `COc1cc2c(cc1CN[C@H]1CCCN[C@H]1c1ccccc1)N(C)C(=O)CCC2.Cl.Cl` displayed a melting point of 236 to 238 °C.

`COc1cc2c(cc1CN[C@H]1CCCN[C@H]1c1ccccc1)CCC(=O)N2C.Cl.Cl`: the melting point was 243 to 244 °C. The same measure, in the same setting: with `COc1cc2c(cc1CN[C@H]1CCCN[C@H]1c1ccccc1)C(C(F)(F)F)CC(=O)N2C.Cl.Cl` (stereo partly drawn) the figure was 225 to 256 °C; with `COc1cc2c(cc1CN[C@H]1CCCN[C@H]1c1ccccc1)N(C)C(=O)OC2.Cl.Cl`, 235 to 237 °C; with `COc1cc2c(cc1CN[C@H]1CCCN[C@H]1c1ccccc1)N(C)C(=O)SC2.Cl.Cl`, 252 to 254 °C. Still for that read-out and setting: with `COc1cc2c(cc1CN[C@H]1CCCN[C@H]1c1ccccc1)C(C)(C)C(=S)N2C.Cl.Cl` the figure was 234 to 236 °C.

In turn, `COc1cc2c(cc1CN[C@H]1CCCN[C@H]1c1ccccc1)CCC(=S)N2C.Cl.Cl` registered a melting point of 219 to 221 °C. Same read-out and setting: with `COc1cc2c(cc1CN[C@H]1CCCN[C@H]1c1ccccc1)N(C)C(=O)CC2.Cl.Cl` [Compound 21, (2S,3S)-3-(6-Methoxy-1-methyl-2-oxo-1,2,3,4-tetrahydroquinolin-7-yl)methylamino-2-phenylpiperidine dihydrochloride] the figure was 265 to 268 °C.

In another data set the target is T1, Ca^2+ channel in rat heart membrane preparation (Rattus norvegicus, UniProt P22002).
T1 construct: from tissue; host or cells: rat heart membrane preparation
T1 sequence (P22002 whole entry, other chains not shown): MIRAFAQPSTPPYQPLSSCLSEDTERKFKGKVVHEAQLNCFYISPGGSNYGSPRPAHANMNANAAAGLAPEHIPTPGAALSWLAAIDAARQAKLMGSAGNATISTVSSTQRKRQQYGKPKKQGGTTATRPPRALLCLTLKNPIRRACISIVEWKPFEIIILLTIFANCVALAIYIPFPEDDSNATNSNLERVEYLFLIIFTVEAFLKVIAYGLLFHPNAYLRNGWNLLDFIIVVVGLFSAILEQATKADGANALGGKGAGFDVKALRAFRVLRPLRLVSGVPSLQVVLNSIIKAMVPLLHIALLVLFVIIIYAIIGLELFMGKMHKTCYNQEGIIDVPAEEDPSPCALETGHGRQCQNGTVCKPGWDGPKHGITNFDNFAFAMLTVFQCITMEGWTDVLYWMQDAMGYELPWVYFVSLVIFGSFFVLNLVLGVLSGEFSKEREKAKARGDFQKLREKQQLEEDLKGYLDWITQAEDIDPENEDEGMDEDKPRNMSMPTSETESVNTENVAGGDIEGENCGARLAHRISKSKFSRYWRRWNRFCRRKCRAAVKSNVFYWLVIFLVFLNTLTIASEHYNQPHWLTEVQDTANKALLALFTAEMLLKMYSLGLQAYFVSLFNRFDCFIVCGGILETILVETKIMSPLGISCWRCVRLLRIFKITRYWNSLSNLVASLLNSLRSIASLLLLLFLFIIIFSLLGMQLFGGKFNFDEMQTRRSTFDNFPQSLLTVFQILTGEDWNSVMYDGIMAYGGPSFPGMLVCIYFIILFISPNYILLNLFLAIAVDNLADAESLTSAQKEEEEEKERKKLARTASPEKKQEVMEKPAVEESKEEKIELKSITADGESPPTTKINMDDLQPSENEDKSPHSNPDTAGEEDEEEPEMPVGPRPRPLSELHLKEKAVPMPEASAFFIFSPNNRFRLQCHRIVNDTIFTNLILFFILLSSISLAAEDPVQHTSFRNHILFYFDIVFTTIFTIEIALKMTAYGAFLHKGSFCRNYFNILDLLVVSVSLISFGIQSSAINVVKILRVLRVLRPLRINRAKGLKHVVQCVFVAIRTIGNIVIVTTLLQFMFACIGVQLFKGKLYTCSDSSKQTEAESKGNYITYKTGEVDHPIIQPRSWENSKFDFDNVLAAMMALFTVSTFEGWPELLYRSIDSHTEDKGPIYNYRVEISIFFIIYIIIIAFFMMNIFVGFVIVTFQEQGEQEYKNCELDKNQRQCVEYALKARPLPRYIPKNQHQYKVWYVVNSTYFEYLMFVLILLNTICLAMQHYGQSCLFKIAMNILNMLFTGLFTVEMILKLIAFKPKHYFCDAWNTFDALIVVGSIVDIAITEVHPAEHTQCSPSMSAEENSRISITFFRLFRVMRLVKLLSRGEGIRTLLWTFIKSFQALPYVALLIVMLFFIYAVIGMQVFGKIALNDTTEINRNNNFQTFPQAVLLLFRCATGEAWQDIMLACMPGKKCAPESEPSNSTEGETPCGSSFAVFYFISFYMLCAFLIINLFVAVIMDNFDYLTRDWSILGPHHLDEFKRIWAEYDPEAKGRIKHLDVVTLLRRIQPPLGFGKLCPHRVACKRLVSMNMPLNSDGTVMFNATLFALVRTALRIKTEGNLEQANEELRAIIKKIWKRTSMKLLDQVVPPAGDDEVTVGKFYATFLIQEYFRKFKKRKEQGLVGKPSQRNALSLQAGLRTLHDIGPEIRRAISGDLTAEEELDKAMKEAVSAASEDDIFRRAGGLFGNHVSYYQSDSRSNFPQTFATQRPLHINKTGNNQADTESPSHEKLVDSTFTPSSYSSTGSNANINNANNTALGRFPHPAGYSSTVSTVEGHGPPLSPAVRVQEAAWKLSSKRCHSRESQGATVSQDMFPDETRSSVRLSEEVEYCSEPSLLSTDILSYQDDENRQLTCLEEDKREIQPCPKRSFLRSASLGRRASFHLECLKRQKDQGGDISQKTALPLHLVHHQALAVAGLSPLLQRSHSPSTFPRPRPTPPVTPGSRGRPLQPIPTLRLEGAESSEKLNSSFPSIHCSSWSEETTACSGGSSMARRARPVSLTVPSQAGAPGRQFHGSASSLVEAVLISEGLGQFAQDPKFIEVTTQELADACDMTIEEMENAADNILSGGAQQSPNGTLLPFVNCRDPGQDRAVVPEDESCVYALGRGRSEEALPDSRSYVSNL
T1 sequence (P54290 25-944 partner limits assumed, other chains not shown): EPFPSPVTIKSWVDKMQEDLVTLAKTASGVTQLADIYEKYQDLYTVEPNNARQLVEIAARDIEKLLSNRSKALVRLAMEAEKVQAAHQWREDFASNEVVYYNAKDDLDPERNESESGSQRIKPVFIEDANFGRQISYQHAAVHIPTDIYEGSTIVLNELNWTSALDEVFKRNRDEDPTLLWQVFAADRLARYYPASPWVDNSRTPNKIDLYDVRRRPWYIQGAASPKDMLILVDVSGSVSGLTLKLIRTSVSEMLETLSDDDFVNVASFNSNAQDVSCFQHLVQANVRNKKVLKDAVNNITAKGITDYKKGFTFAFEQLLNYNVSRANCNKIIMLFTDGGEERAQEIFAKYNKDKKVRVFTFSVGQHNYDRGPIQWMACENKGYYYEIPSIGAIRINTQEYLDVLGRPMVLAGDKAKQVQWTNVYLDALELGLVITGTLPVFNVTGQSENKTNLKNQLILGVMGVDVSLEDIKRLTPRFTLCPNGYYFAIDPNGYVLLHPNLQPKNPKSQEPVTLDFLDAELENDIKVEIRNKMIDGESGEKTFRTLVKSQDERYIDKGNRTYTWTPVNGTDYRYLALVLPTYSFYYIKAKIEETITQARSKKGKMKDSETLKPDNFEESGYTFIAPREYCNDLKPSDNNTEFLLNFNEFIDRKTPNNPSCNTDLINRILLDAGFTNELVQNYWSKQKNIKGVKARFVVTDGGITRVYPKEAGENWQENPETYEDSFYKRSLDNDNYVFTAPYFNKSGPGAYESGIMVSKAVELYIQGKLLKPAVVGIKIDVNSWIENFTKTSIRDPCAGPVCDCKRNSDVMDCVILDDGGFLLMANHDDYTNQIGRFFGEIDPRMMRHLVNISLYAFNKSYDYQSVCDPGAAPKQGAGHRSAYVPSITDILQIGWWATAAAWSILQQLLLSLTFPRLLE
T1 sequence (P54290 945-1091 partner limits assumed, other chains not shown): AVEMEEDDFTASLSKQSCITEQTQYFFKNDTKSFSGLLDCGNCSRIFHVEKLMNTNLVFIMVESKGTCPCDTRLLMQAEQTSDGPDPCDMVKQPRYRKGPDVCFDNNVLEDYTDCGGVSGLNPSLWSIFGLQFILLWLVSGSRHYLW
Briefly: verapamil binding study ([^3H]desmethoxyverapamil). To be noted: read-out: verapamil binding study (Ca^2+ channel binding affinity). The procedure:
The adverse effect on Ca^2+ channel binding affinity is determined by verapamil binding study in rat heart membrane preparation. More specifically, verapamil binding study is performed as previously described by Reynolds et al., (J. Pharmacol. Exp. Ther. 237, 731, 1986). Briefly, incubations are initiated by the addition of tissue to tubes containing 0.25 nM [^3H]desmethoxyverapamil and various concentrations of compounds (total volume; 1 ml). Nonspecific binding is defined as radioligand binding remaining in the presence of 3-10 μM methoxyverapamil.
On to `COc1cc2c(cc1CN[C@H]1CCCN[C@H]1c1ccccc1)N(C)C(=O)CC2.Cl.Cl` [Compound 21, (2S,3S)-3-(6-Methoxy-1-methyl-2-oxo-1,2,3,4-tetrahydroquinolin-7-yl)methylamino-2-phenylpiperidine dihydrochloride], for which the IC50 is greater than 3000 nM.

A further data set deals with T2, substance P receptor sites in human IM-9 cells (Homo sapiens, UniProt P25103).
T2 construct: endogenous in cells; host or cells: human IM-9 cells (whole cells)
T2 sequence (P25103 whole entry): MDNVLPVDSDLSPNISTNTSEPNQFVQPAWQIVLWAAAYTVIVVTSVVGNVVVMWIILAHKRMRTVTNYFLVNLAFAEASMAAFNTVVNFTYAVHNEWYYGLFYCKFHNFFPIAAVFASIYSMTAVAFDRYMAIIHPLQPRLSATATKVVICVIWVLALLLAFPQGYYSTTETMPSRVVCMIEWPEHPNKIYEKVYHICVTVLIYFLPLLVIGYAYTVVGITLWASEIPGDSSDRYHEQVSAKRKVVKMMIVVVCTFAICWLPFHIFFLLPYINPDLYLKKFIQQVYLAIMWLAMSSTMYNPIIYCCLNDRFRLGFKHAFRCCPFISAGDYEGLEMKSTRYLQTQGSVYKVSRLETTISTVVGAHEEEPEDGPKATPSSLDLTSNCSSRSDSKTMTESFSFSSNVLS
Briefly: IM-9 binding assay (inhibition of [^3H]SP binding). The settings on record: [^3H]SP binding to human IM-9 cells. The method, then: The activity of the compounds of the present invention, as substance P antagonists, is determined by their ability to inhibit the binding of substance P at its 30 receptor sites in CHO-cells which reveal NK1 receptor or IM-9 cells employing radioactive ligands. The substance P antagonist activity of the herein described compounds is evaluated by using the standard assay procedure described by D. G. Payan et al., as reported in the The Journal of Immunology . 133, 3260 (1984). This method essentially involves determining the concentration of the individual compound required to reduce by 50% the amount of radiolabelled substance P ligands at their receptor sites in said isolated cow tissues or IM-9 cells, thereby affording characteristic IC50 values for each compound tested. More specifically, inhibition of [^3H]SP binding to human IM-9 cells by compounds are determined in assay buffer (50 mM Tris-HCl (pH 7.4), 1 mM MnCl2, 0.02% bovine serum albumin, bacitracin (40 μg/ml), leupeptin (4 μg/ml), chymostatin (2 μg/ml) and phosphoramidon (30 μg/ml)). […] Nonspecific binding is defined as the radioactivity remaining in the presence of 1 μM SP. The filters are placed into tubes and counted using liquid scintillation counter.
In the case of `COc1cc2c(cc1CN[C@H]1CCCN[C@H]1c1ccccc1)N(C)C(=O)CC2.Cl.Cl` [Compound 21, (2S,3S)-3-(6-Methoxy-1-methyl-2-oxo-1,2,3,4-tetrahydroquinolin-7-yl)methylamino-2-phenylpiperidine dihydrochloride], the IC50 is less than 0.1 nM.

The next data set concerns [Sar^9, Met(O2)^11]substance P-induced hind paw tapping in gerbils. Briefly: [Sar^9, Met(O2)^11]substance P-induced tapping test. The format is in vivo, gerbil. The settings on record: Meriones unguiculatus, % inhibition at 0.3 mg/kg scoring. The method, then: The activity of the compounds of this invention against CNS disorder is determined by [Sar^9, Met(O2)^11]substance P-induced tapping test in gerbils. More specifically, gerbils are lightly anesthetized with ether and the skull surface is exposed. [Sar^9, Met(O2)^11]substance P or vehicle (5 μl) are administered directly into the lateral ventricles via a 25 gauge needle inserted 3.5 mm below lambda. Following injection, gerbils are placed in 2 l beaker individually and monitored for repetitive hind paw tapping. Some compounds prepared in the following Examples were tested in accordance with these testing methods.
The molecule `COc1cc2c(cc1CN[C@H]1CCCN[C@H]1c1ccccc1)N(C)C(=O)CC2.Cl.Cl` [Compound 21, (2S,3S)-3-(6-Methoxy-1-methyl-2-oxo-1,2,3,4-tetrahydroquinolin-7-yl)methylamino-2-phenylpiperidine dihydrochloride] had an inhibition at 0.3 mg/kg of 52%.
